Data: patent publication US6737383B1, “Herbicidal oxadiazolidines” (priority 1999, dated 2004)

Experiments:
[1] = tested on: pigweed; assay: Test B pre/postemergence pigweed; type: in vivo, Amaranthus retroflexus
Procedure, shortened: (§1)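 Test chemicals in a non-phytotoxic solvent mixture with surfactant were sprayed preemergence onto planted seeds and postemergence onto plants 2 to 18 cm tall (1- to 4-leaf stage). After twelve to sixteen days in a greenhouse, injury was visually rated against untreated controls from 0 (no effect) to 10 (complete control).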

[2] = tested on: sugar beet; assay: Test B pre/postemergence sugar beet; type: in vivo, Beta vulgaris
Procedure, shortened: as §1

[3] = tested on: blackgrass; assay: Test B pre/postemergence blackgrass; type: in vivo, Alopecurus myosuroides
Procedure, shortened: as §1

[4] = tested on: rape; assay: Test B pre/postemergence rape; type: in vivo, Brassica napus
Procedure, shortened: as §1

[5] = tested on: crabgrass; assay: Test B pre/postemergence crabgrass; type: in vivo, Digitaria sanguinalis
Procedure, shortened: as §1

[6] = tested on: wheat; assay: Test B pre/postemergence wheat; type: in vivo, Triticum aestivum
Procedure, shortened: as §1

[7] = tested on: soybean; assay: Test B pre/postemergence soybean; type: in vivo, Glycine max
Procedure, shortened: as §1

[8] = tested on: purple nutsedge; assay: Test B pre/postemergence purple nutsedge; type: in vivo, Cyperus rotundus
Procedure, shortened: as §1

[9] = tested on: cocklebur; assay: Test B pre/postemergence cocklebur; type: in vivo, Xanthium strumarium
Procedure, shortened: as §1

[10] = tested on: surinam grass; assay: Test B pre/postemergence surinam grass; type: in vivo, Brachiaria decumbens; details: Postemergence
Procedure, shortened: as §1

[11] = tested on: wild oat; assay: Test B pre/postemergence wild oat; type: in vivo, Avena fatua
Procedure, shortened: as §1

[12] = tested on: velvetleaf; assay: Test B pre/postemergence velvetleaf; type: in vivo, Abutilon theophrasti
Procedure, shortened: as §1

[13] = tested on: corn; assay: Test B pre/postemergence corn; type: in vivo, Zea mays
Procedure, shortened: as §1

[14] = tested on: giant foxtail; assay: Test B pre/postemergence giant foxtail; type: in vivo, Setaria faberii
Procedure, shortened: as §1

[15] = tested on: bedstraw; assay: Test B pre/postemergence bedstraw; type: in vivo, Galium aparine
Procedure, shortened: as §1

[16] = tested on: morningglory; assay: Test B pre/postemergence morningglory; type: in vivo, Ipomoea hederacea
Procedure, shortened: as §1

[17] = Postemergence, Rate 125 g/ha, scale of 0 to 10 where 0 is no effect and 10 is complete control
[18] = Postemergence, Rate 500 g/ha, scale 0 (no effect) to 10 (complete control)
[19] = Postemergence, Rate 1000 g/ha, scale 0 to 10 (0 no effect, 10 complete control)
[20] = Rate 125 g/ha, Preemergence, scale 0 to 10 (0 no effect, 10 complete control)
[21] = Rate 250 g/ha, Postemergence, scale 0 to 10, 0 is no effect, 10 is complete control
[22] = Rate 500 g/ha, Preemergence, scale 0 to 10 (0 no effect, 10 complete control)
[23] = Rate 1000 g/ha, Preemergence, scale 0 to 10 (0 no effect, 10 complete control)
[24] = Preemergence, Rate 250 g/ha, scale 0 (no effect) to 10 (complete control)

SMILES: COP(=O)(CCn1c(=O)on(C(=O)N(c2ccc(F)cc2F)C(C)C)c1=O)OC [Compound 777]
- Redroot pigweed plant response rating [1, 17]: 2
- Redroot pigweed plant response rating [1, 18]: 4
- Redroot pigweed plant response rating [1, 19]: 8
- Redroot pigweed plant response rating [1, 20]: 2
- Redroot pigweed plant response rating [1, 21]: 4
- Redroot pigweed plant response rating [1, 22]: 2
- Plant response rating, Redroot pigweed [1, 23]: 9
- Sugarbeets plant response rating [2, 18]: 5
- Sugarbeets plant response rating [2, 20]: 0
- Sugarbeets plant response rating [2, 21]: 3
- Sugarbeets plant response rating [2, 22]: 3
- Plant response rating, Sugarbeets [2, 23]: 3
- Blackgrass plant response rating [3, 17]: 0
- Blackgrass plant response rating [3, 18]: 4
- Blackgrass plant response rating [3, 19]: 4
- Blackgrass plant response rating [3, 24]: 10
- Blackgrass plant response rating [3, 20]: 2
- Blackgrass plant response rating [3, 21]: 2
- Blackgrass plant response rating [3, 22]: 10
- Plant response rating, Blackgrass [3, 23]: 10
- Rape plant response rating [4, 17]: 0
- Rape plant response rating [4, 18]: 0
- Rape plant response rating [4, 19]: 0
- Rape plant response rating [4, 20]: 0
- Rape plant response rating [4, 21]: 0
- Rape plant response rating [4, 22]: 2
- Plant response rating, Rape [4, 23]: 7
- Crabgrass plant response rating [5, 17]: 4
- Crabgrass plant response rating [5, 18]: 9
- Crabgrass plant response rating [5, 24]: 10
- Crabgrass plant response rating [5, 20]: 10
- Crabgrass plant response rating [5, 21]: 7
- Crabgrass plant response rating [5, 22]: 10
- Plant response rating, Crabgrass [5, 23]: 10
- Wheat plant response rating [6, 18]: 3
- Wheat plant response rating [6, 20]: 0
- Wheat plant response rating [6, 21]: 2
- Wheat plant response rating [6, 22]: 9
- Plant response rating, Wheat [6, 23]: 9
- Soybean plant response rating [7, 18]: 6
- Soybean plant response rating [7, 20]: 0
- Soybean plant response rating [7, 21]: 3
- Soybean plant response rating [7, 22]: 0
- Plant response rating, Soybean [7, 23]: 0
- Nutsedge plant response rating [8, 18]: 3
- Nutsedge plant response rating [8, 19]: 3
- Nutsedge plant response rating [8, 20]: 0
- Nutsedge plant response rating [8, 21]: 0
- Plant response rating, Nutsedge [8, 23]: 1
- Cocklebur plant response rating [9, 17]: 0
- Cocklebur plant response rating [9, 18]: 0
- Cocklebur plant response rating [9, 19]: 0
- Cocklebur plant response rating [9, 24]: 0
- Cocklebur plant response rating [9, 20]: 0
- Cocklebur plant response rating [9, 21]: 0
- Cocklebur plant response rating [9, 22]: 0
- B. signalgrass plant response rating ([10]; Rate 125 g/ha, scale of 0 to 10 where 0 is no effect and 10 is complete control): 2
- B. signalgrass plant response rating ([10]; Rate 1000 g/ha, scale 0 to 10 (0 no effect, 10 complete control)): 8
- B. signalgrass plant response rating ([10]; Rate 250 g/ha, scale 0 to 10, 0 is no effect, 10 is complete control): 2
- B. signalgrass plant response rating ([10]; Rate 500 g/ha, scale 0 to 10, 0 is no effect, 10 is complete control): 3
- Wild oats plant response rating [11, 18]: 3
- Wild oats plant response rating [11, 20]: 3
- Wild oats plant response rating [11, 21]: 2
- Wild oats plant response rating [11, 22]: 9
- Plant response rating, Wild oats [11, 23]: 9
- Velvetleaf plant response rating [12, 18]: 5
- Velvetleaf plant response rating [12, 20]: 0
- Velvetleaf plant response rating [12, 21]: 3
- Velvetleaf plant response rating [12, 22]: 0
- Plant response rating, Velvetleaf [12, 23]: 3
- Corn plant response rating [13, 17]: 0
- Corn plant response rating [13, 18]: 0
- Corn plant response rating [13, 19]: 0
- Corn plant response rating [13, 24]: 0
- Corn plant response rating [13, 20]: 0
- Corn plant response rating [13, 21]: 0
- Corn plant response rating [13, 22]: 0
- Plant response rating, Corn [13, 23]: 0
- Giant foxtail plant response rating [14, 17]: 8
- Giant foxtail plant response rating [14, 18]: 9
- Giant foxtail plant response rating [14, 19]: 9
- Giant foxtail plant response rating [14, 24]: 10
- Giant foxtail plant response rating [14, 20]: 10
- Giant foxtail plant response rating [14, 21]: 8
- Giant foxtail plant response rating [14, 22]: 10
- Plant response rating, Giant foxtail [14, 23]: 10
- Bedstraw plant response rating [15, 17]: 0
- Bedstraw plant response rating [15, 18]: 3
- Bedstraw plant response rating [15, 19]: 6
- Bedstraw plant response rating [15, 20]: 0
- Bedstraw plant response rating [15, 21]: 2
- Bedstraw plant response rating [15, 22]: 0
- Plant response rating, Bedstraw [15, 23]: 3
- Morningglory plant response rating [16, 17]: 8
- Morningglory plant response rating [16, 18]: 8
- Morningglory plant response rating [16, 19]: 8
- Morningglory plant response rating [16, 20]: 1
- Morningglory plant response rating [16, 21]: 8
- Morningglory plant response rating [16, 22]: 5
- Plant response rating, Morningglory [16, 23]: 7
